# Laboratory results from ChEMBL document CHEMBL1129905, “Benzothiadiazine dioxide acyclonucleosides as lead compounds for the development of new agents against human cytomegalovirus and varicella-zoster virus infections” (Bioorg Med Chem Lett, 1997).
# Assays:
# [1] = test system: HeLa; experiment: (§1) Cytotoxic activity was measured in human […] cells (HeLa); type: functional
# [2] = Cytotoxic activity was measured in human embryonic lung cells(HeLa); type: functional
# [3] = test system: HEL; experiment: Antiviral activity was measured against Varicella-Zoster virus (VZV) YS/R strain in human embryonic lung (HEL) cells; type: functional, cell-based
# [4] = test system: MT4; experiment: The potential anti-HIV activity was evaluated against HIV-1 IIIb strain in MT-4 cells; type: functional, cell-based; settings: Homo sapiens
# [5] = test system: HEL; experiment: Antiviral activity was measured against Varicella-Zoster virus (VZV) 07/1 strain in human embryonic lung (HEL) cells; type: functional, cell-based
# [6] = test system: HEL; experiment: Antiviral activity was measured against cytomegalovirus (CMV) AD-169 strain in human embryonic lung (HEL) cells; type: functional, cell-based
# [7] = test system: MT4; experiment: The potential anti-HIV activity was evaluated against HIV-2 ROD strain in MT-4 cells; type: functional, cell-based; settings: Homo sapiens
# [8] = test system: HEL; experiment: Antiviral activity was measured against cytomegalovirus (CMV) Davis strain in human embryonic lung (HEL) cells; type: functional, cell-based
# [9] = test system: HeLa; experiment: as §1; type: functional; remark: listed apart in the source
# [10] = test system: Human immunodeficiency virus 1; experiment: Tested for its ability to inhibit replication of HIV-1 in MT-4 cells, activity expressed as IC50.; type: functional; settings: Human immunodeficiency virus 1, MT4
Compound,CC50 [1] [mg/L],CC50 [2] [mg/L],IC50 [3] [mg/L],IC50 [4] [mg/L],IC50 [5] [mg/L],IC50 [6] [mg/L],IC50 [7] [mg/L],IC50 [8] [mg/L],CC50 [9] [mg/L],IC50 [10] [mg/L]
O=C1c2ccccc2N(Cc2ccccc2)S(=O)(=O)N1COCc1ccccc1,> 50,> 125,3,3.7,> 5,3.6,> 99,3.6,> 50,3.7
O=C(OCCOCN1c2ccccc2C(=O)N(Cc2ccccc2)S1(=O)=O)c1ccccc1,24,> 125,> 12,79.3,> 12,12,> 86,12,24,
Nc1nc2c(ncn2COC(CO)CO)c(=O)[nH]1 [GANCICLOVIR],,,,,,1.2,,1.3,> 50,
O=C1c2ccccc2N(COCc2ccccc2)S(=O)(=O)N1Cc1ccccc1,> 50,25,13,> 8,11,11,> 8,12,> 50,
Nc1nc2c(ncn2COCCO)c(=O)[nH]1 [ACYCLOVIR],200,,,,,,,,,
C#CCOCN1c2ccccc2C(=O)N(Cc2ccccc2)S1(=O)=O,> 50,23,> 5,> 8,> 5,8.4,> 8,11,> 50,
